Experimental data reported in patent publication US20070197586A1, “8-Hydroxy-5-[(-Hydroxy-2-[[ (1R)-2-(4-Methoxyphenyl)-1-Methylethyl] Amino][Ethyl]-2(1H)-Quinolinone Monohydrochloride In Crystalline Form And The Process For Its Preparation” (Chiesi Farmaceutici S.p.A., priority 2004, published 2007).

Assay: Crystalline degree by in-house DSC method (heat of fusion vs 100% crystalline reference standard)
Format: physicochemical
Conditions: samples as such and after grinding or micronization; DSC scan rate 130° C./min; maintained after grinding and micronization
Procedure: The crystalline degree of the compound has been determined according to a differential scanning calorimetry (DSC) method developed in-house based on the measurement of the heat of fusion.
Said method uses a scan rate of 130° C./min to evaluate the percentage of crystalline compound in a sample by determining the ratio between the ΔH (heat of fusion) of the sample with respect to the ΔH of a 100% crystalline reference standard, determined in the same range of temperature and in the same experimental conditions. The 100% crystalline reference standard was prepared by suspending the compound in ethanol, then filtering to eliminate the residual amorphous compound dissolved in ethanol, and drying.
The method was applied to samples of the compound of the Example as such, and after grinding or micronization.

With COc1ccc(C[C@@H](C)NC[C@H](O)c2ccc(O)c3[nH]c(=O)ccc23)cc1.Cl [compound of the Example, 8-hydroxy-5-[(1R)-1-hydroxy-2-[[(1R)-2-(4-methoxyphenyl)-1-methylethyl]amino]ethyl]-2(1H)-quinolinone monohydrochloride] the cristallinity degree was “higher than 90%”.
